Reference: PubChem BioAssay (NCI)
Where “and” joins values, the source holds several entries; their conditions need not be identical. Equal entries are not always repeated.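 48-hour exposure; five concentrations; linearly interpolated endpoints. Here, GI50 denotes the concentration required for 50% inhibition of growth. TGI is the concentration that stops growth completely.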

Legend:
Assay in all cases: NCI tumour cell line growth inhibition, 48 h
TK-10 renal = tested on: TK-10 renal
SW-620 colon = tested on: SW-620 colon
M14 melanoma = tested on: M14 melanoma
MDA-MB-435 = tested on: MDA-MB-435
CCRF-CEM leukemia = tested on: CCRF-CEM leukemia
NCI-H460 lung = tested on: NCI-H460 lung
HCT-116 colon = tested on: HCT-116 colon
MALME-3M melanoma = tested on: MALME-3M melanoma
SK-OV-3 ovarian = tested on: SK-OV-3 ovarian
U251 CNS = tested on: U251 CNS

| SMILES | TGI (TK-10 renal) | TGI (SW-620 colon) | TGI (M14 melanoma) | TGI (MDA-MB-435) | TGI (CCRF-CEM leukemia) | TGI (NCI-H460 lung) | TGI (HCT-116 colon) | TGI (MALME-3M melanoma) | TGI (SK-OV-3 ovarian) | TGI (U251 CNS) | GI50 (TK-10 renal) | GI50 (SW-620 colon) | GI50 (M14 melanoma) | GI50 (MDA-MB-435) | GI50 (CCRF-CEM leukemia) | GI50 (NCI-H460 lung) | GI50 (HCT-116 colon) | GI50 (MALME-3M melanoma) | GI50 (SK-OV-3 ovarian) | GI50 (U251 CNS) |
| --- | --- | --- | --- | --- | --- | --- | --- | --- | --- | --- | --- | --- | --- | --- | --- | --- | --- | --- | --- | --- |
| O=C(O)c1cccc(N=Nc2c(S(=O)(=O)O)ccc3c2C(=O)c2ccccc2C3=O)c1O | > 100 µM | > 100 µM | > 100 µM | > 100 µM | > 100 µM | > 100 µM | > 100 µM | > 100 µM | > 100 µM | > 100 µM | – | – | – | – | – | – | – | – | – | – |
| COc1cc(O)c(C(=O)/C=C/c2ccc(O)cc2)c(O)c1[C@@H]1C[C@H](CCc2ccc(O)cc2)O[C@H](c2ccc(O)cc2)C1 | 17.1 µM | 4.91 µM | 12.2 µM | 14 µM | 10.6 µM | 7.87 µM | 11.1 µM | 28.7 µM | 7.65 µM | 11.5 µM | 4.55 µM | 2.23 µM | 3.48 µM | 3.89 µM | 3.28 µM | 3 µM | 3.74 µM | 5.46 µM | 2.82 µM | 3.31 µM |
| NC(=O)c1cc(-c2ccc(F)cc2)cc(-c2ccncc2)c1N | > 25 µM | > 25 µM | > 25 µM | > 25 µM | > 25 µM | > 25 µM | > 25 µM | > 25 µM | > 25 µM | > 25 µM | > 25 µM | > 25 µM | > 25 µM | > 25 µM | > 25 µM | > 25 µM | > 25 µM | > 25 µM | > 25 µM | > 25 µM |
| CCn1cc(C(=O)O)c(=O)c2cc3c(cc21)S(=O)(=O)CC3 | > 100 µM | > 100 µM | > 100 µM | > 100 µM | > 100 µM | > 100 µM | > 100 µM | > 100 µM | > 100 µM | > 100 µM | – | – | – | – | – | – | – | – | – | – |
| COc1cc(OC)c(/C=C/c2cnc3ccccc3n2)c(OC)c1 | > 10 µM | > 10 µM | > 10 µM | > 10 µM | > 10 µM | > 10 µM | > 10 µM | > 10 µM | > 10 µM | > 10 µM | – | – | – | – | – | – | – | – | – | – |
| CCCCCCCCCCCC1CCCC(C)N1 (centres undefined) | 19.3 µM | – | 31.7 µM | 18.2 µM | – | 12.5 µM and 118 µM | > 41.9 µM and 104 µM | 22.7 µM and 166 µM | 28.5 µM and 158 µM | 18.2 µM and 128 µM | 6.47 µM | 2.71 µM | 8.47 µM | 5.01 µM | 1.45 µM | 3.67 µM | 5.82 µM | 8.03 µM | 14.5 µM | 4.53 µM |
| Cn1ccnc1C(=O)/C=C/c1ccccc1 | 19.1 µM | 12.4 µM | 10.4 µM | 10.2 µM | 7.17 µM | 11.4 µM | 12.2 µM | 27.9 µM | 35.9 µM | 13.9 µM | 5.83 µM | 3.58 µM | 3.41 µM | 3.21 µM | 2.7 µM | 3.2 µM | 2.72 µM | 12.3 µM | 4.55 µM | 3.21 µM |
| Nc1nc(-c2ccccc2)nc2c1[n+]([O-])c1ccccc1[n+]2[O-] | > 100 µM | > 100 µM | > 100 µM | > 100 µM | > 100 µM | > 100 µM | > 100 µM | > 100 µM | > 100 µM | > 100 µM | – | – | – | – | – | – | – | – | – | – |
| CC[C@@H](C(=O)[C@@H](C)[C@@H](O)[C@H](C)[C@@H]1O[C@@H]([C@@H](CC)C(=O)N(CC)CC)CC[C@@H]1C)C1O[C@]2(C=CC(=O)[C@]3(CC[C@@](C)([C@H]4CC[C@](O)(CC)[C@H](C)O4)O3)O2)[C@H](C)C[C@@H]1C (some centres undefined) | > 100 µM | 23.5 µM | – | 9.95 µM | 14.4 µM | 4.94 µM | 17.4 µM | 4.9 µM | > 100 µM | 13.4 µM | 3.49 µM | 3.11 µM | – | 2.91 µM | 3.01 µM | 2.11 µM | 3.18 µM | 1.93 µM | 3.87 µM | 3.1 µM |
| COC(=O)C1=C(C)NC(C)=C(C(=O)OC)C1/C=C(Cl)/C=C/c1ccccc1 | 65.9 µM | > 100 µM | 30.5 µM | 37.1 µM | 60 µM | 45.4 µM | 30.9 µM | 46 µM | > 100 µM | 58.5 µM | 22.7 µM | 37.3 µM | 16.2 µM | 18.8 µM | 29.6 µM | 18.6 µM | 17.2 µM | 19.8 µM | 28.2 µM | 23 µM |
| N#CSCC1CC(O)(c2ccccc2)CC(c2ccc(F)cc2)O1 (centres undefined) | 5.77 µM | 3.74 µM | 3.13 µM | 4.08 µM | 6.08 µM | 4.34 µM | 2.98 µM | 6.44 µM | 15.7 µM | 3.13 µM | 2.07 µM | 2.07 µM | 1.62 µM | 1.83 µM | 1.72 µM | 2.08 µM | 1.63 µM | 2.14 µM | 4.67 µM | 1.7 µM |
| COc1ccc(/C(C#N)=C/c2ccc(OC)c(OC)c2)cc1 | > 100 µM | > 100 µM | > 100 µM | > 100 µM | > 100 µM | > 100 µM | > 100 µM | > 100 µM | > 100 µM | > 100 µM | – | – | – | – | – | – | – | – | – | – |
| Fc1ccc(Nc2nc3nonc3nc2Nc2ccc(F)cc2)cc1 | 6.74 µM | 14.2 µM | 10.5 µM | 3.61 µM | 10.1 µM | 10.5 µM | 11.4 µM | 1.11 µM | 0.852 µM | 10.8 µM | 0.435 µM | 0.573 µM | 0.586 µM | 0.338 µM | 0.35 µM | 0.319 µM | 0.322 µM | 0.277 µM | 0.244 µM | 0.387 µM |
| CN1c2ccccc2C(C)(C)C12C=Cc1cc(O)ccc1O2 (centres undefined) | 9.63 µM | 13.8 µM | 5.52 µM | 4.49 µM | 10.2 µM | 6.45 µM | 11.8 µM | – | 8.81 µM | 10.9 µM | 2.94 µM | 3.4 µM | 2.35 µM | 2.1 µM | 2.87 µM | 2.28 µM | 2.8 µM | – | 3.41 µM | 3.18 µM |
